Source: US20250066343A1, “NOVEL CANNAB[…] DERIVATIVE, PREPARATION METHOD THEREFOR, AND COMPOSITION COMPRISING SAME FOR IMPROVING COGNITIVE FUNCTION” (priority 2021, published 2025)

What was measured:
Format in all cases: biochemical
[1] = target: Acetylcholinesterase (AChE) (Homo sapiens, UniProt P22303); experiment: Acetylcholinesterase inhibitory efficacy (acetylthiocholine/DTNB absorbance assay)
Description: (§1) Acetylcholinesterase or butyrylcholinesterase was prepared at 50 mU/ml, 50 μl was added to a 96-well plate, mixed with the aliquoted compound, and left for 10 minutes. The substrate, acetylthiocoline 0.05 mg/mL or butyrylthiocoline 0.1 mg/ml, was prepared and 50 μl was added to a 96-well plate and left for 10 minutes. Dithionitrobenzoic acid (DTNB) was prepared at 0.3 mg/ml, then 50 μl was added to a 96-well plate and left for 10 minutes.

[2] = target: T1, Monoamine oxidase B (MAO-B) (Homo sapiens, UniProt P27338); experiment: Monoamine oxidase B inhibitory efficacy (kynuramine fluorescence assay); conditions: compound 0-200 μM; enzyme 2 mU/mL; kynuramine substrate; N.D. = Not Detected
T1 sequence (P27338 1-520): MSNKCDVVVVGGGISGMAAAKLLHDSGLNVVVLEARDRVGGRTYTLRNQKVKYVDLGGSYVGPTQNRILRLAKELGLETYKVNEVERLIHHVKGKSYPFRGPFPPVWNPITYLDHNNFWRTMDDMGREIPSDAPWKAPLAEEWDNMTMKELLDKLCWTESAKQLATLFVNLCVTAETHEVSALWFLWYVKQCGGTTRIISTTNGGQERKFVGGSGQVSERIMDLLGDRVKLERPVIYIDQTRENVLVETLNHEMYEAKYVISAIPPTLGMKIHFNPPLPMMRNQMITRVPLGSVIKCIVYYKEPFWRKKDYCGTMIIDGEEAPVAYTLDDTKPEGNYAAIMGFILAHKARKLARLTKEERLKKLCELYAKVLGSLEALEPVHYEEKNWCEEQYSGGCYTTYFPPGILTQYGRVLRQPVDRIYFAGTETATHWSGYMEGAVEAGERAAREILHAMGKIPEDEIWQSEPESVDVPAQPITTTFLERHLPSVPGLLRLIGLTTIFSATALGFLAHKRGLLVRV
Description: Samples were prepared by dilution with DMSO to give concentrations of 0, 2, 5, 10, 20, 50, 100, and 200 μM of the compound, and 5 μl was dispensed into a 96-well plate. 135 μl of potassium phosphate buffer (0.1 M, 7.4 pH) was dispensed into a 96-well plate. Monoamine oxidase B was prepared at 2 mU/mL, and 50 μl was added to the 96-well plate, mixed with the dispensed compound, and left for 20 minutes. The substrate, kynuramine solution, was prepared at 100 μM, then 10 μl was added to a 96-well plate and left for 10 min. The reaction was stopped by adding 75 μl of NaOH (2N). The enzyme activity was calculated by measuring the concentration of kynuramine degraded by the enzyme using a fluorometer under 310 nm (excitation)/380 nm (emission) conditions. For the fluorescence blank experiment, potassium phosphate buffer was added instead of monoamine oxidase B to correct the compound-induced fluorescence intensity values.

[3] = target: Butyrylcholinesterase (BuChE) (Homo sapiens, UniProt P06276); experiment: Butyrylcholinesterase inhibitory efficacy (butyrylthiocholine/DTNB absorbance assay); conditions: compound 0-200 μM; enzyme 50 mU/ml; N.D. = Not Detected
Sequence of Butyrylcholinesterase (BuChE) (P06276 29-602): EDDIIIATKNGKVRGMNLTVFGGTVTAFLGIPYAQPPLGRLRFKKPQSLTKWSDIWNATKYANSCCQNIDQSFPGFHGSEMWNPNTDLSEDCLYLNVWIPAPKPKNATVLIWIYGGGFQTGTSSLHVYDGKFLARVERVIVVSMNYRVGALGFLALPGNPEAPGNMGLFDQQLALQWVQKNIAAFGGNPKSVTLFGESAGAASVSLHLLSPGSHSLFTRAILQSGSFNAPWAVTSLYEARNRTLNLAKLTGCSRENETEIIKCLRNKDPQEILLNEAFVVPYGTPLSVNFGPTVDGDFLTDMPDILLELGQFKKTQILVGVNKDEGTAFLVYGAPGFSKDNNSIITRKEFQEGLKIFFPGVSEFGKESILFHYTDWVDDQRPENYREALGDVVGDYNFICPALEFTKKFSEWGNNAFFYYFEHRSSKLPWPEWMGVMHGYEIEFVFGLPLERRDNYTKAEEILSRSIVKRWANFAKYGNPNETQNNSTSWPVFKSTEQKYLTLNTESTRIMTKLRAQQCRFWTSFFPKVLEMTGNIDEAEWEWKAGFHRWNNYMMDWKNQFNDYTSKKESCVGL
Description: as §1

Sequence of Acetylcholinesterase (AChE) (P22303 32-614, species assumed): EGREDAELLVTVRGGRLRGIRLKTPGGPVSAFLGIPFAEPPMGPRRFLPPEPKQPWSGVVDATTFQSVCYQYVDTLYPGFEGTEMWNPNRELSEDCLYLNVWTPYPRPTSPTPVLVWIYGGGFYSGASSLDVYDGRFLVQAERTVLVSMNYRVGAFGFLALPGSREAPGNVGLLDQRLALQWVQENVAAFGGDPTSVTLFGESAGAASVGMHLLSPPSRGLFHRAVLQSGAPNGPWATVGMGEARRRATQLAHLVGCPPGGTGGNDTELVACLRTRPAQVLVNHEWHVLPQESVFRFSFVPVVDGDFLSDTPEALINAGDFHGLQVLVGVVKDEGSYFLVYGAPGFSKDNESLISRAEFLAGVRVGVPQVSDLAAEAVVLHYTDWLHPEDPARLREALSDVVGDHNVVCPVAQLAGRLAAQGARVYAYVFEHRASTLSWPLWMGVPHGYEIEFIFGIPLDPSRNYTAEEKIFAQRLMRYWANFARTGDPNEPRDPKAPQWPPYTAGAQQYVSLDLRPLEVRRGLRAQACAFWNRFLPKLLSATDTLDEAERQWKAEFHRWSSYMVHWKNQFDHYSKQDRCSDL

SMILES: CCCCCc1cc2c(c(O)c1C(=O)NC(C)C)C=CC(C)(CCC=C(C)C)O2 (stereo not drawn) [Compound 4a, 5-hydroxy-N-isopropyl-2-methyl-2-(4-methylpent-3-en-1-yl)-7-pentyl-2H-chromene-6-carboxamide]
- IC50 [1]: 1300 nM

SMILES: CCCCCc1cc2c(c(O)c1C(=O)NC1CCCCCC1)C=CC(C)(CCC=C(C)C)O2 (stereo not drawn) [Compound 4ab, N-cycloheptyl-5-hydroxy-2-methyl-2(4-methylpent-3en-1-yl)-7-pentyl-2H-chromene-6-carboxamide]
- IC50 [1]: 2600 nM

SMILES: CCCCCc1cc2c(c(O)c1C(=O)N1CCc3ccccc3C1)C=CC(C)(CCC=C(C)C)O2 (stereo not drawn) [Compound 4ac, (3,4-dihydroisoquinolin-2(1H)-yl)(5-hydroxy-2-methyl-2-(4-methylpent-3-en-1-yl)-7-pentyl-2H-chromen-6-yl)methanone]
- IC50 [2]: 137 µM
- IC50 [1]: 2100 nM

SMILES: CCCCCc1cc2c(c(O)c1C(=O)Nc1ccc(Br)cc1)C=CC(C)(CCC=C(C)C)O2 (stereo not drawn) [Compound 4ad, N-(4-bromophenyl)-5-hydroxy-2-methyl-2-(4-methylpent-3-en-1-yl)-7-pentyl-2H-chromene-6-carboxamide]
- IC50 [2]: 12 µM
- IC50 [1]: < 500 nM

SMILES: CCCCCc1cc2c(c(O)c1C(=O)NC1CCOCC1)C=CC(C)(CCC=C(C)C)O2 (stereo not drawn) [Compound 4af, 5-hydroxy-2-methyl-2-(4-methylpent-3-en-1-yl)-7-pentyl-N-(tetrahydro-2H-pyran-4-yl)-2H-chromene-6-carboxamide]
- IC50 [2]: 194 µM
- IC50 [1]: 46100 nM

SMILES: CCCCCc1cc2c(c(O)c1C(=O)N(C)C1CCCC1)C=CC(C)(CCC=C(C)C)O2 (stereo not drawn) [Compound 4ag, N-cyclopentyl-5-hydroxy-N,2-dimethyl-2-(4-methylpent-3-en-1-yl)-7-pentyl-2H-chromene-6-carboxamide]
- IC50 [2]: 14.4 µM
- IC50 [1]: 47700 nM

SMILES: CCCCCc1cc2c(c(O)c1C(=O)NC1CC1)C=CC(C)(CCC=C(C)C)O2 (stereo not drawn) [Compound 4c, N-cyclopropyl-5-hydroxy-2-methyl-2-(4-methylpent-3-en-1-yl)-7-pentyl-2H-chromene-6-carboxamide]
- IC50 [1]: 4300 nM

SMILES: CCCCCc1cc2c(c(O)c1C(=O)NCCCC)C=CC(C)(CCC=C(C)C)O2 (stereo not drawn) [Compound 4d, N-butyl-5-hydroxy-2-methyl-2-(4-methylpent-3-en-1-yl)-7-pentyl-2H-chromene-6-carboxamide]
- IC50 [1]: 1000 nM

SMILES: CCCCCc1cc2c(c(O)c1C(=O)NC1CCCC1)C=CC(C)(CCC=C(C)C)O2 (stereo not drawn) [Compound 4e, N-cyclopentyl-5-hydroxy-2-methyl-2-(4-methylpent-3-en-1-yl)-7-pentyl-2H-chromene-6-carboxamide]
- IC50 [1]: 400 nM
- IC50 [3]: 400 nM

SMILES: CCCCCc1cc2c(c(O)c1C(=O)NC1CCCCC1)C=CC(C)(CCC=C(C)C)O2 (stereo not drawn) [Compound 4f, N-cyclohexyl-5-hydroxy-2-methyl-2-(4-methylpent-3-en-1-yl)-7-pentyl-2H-chromene-6-carboxamide]
- IC50 [1]: 1200 nM

SMILES: CCCCCCCCCNC(=O)c1c(CCCCC)cc2c(c1O)C=CC(C)(CCC=C(C)C)O2 (stereo not drawn) [Compound 4g, 5-hydroxy-2-methyl-2-(4-methylpent-3-en-1-yl)-N-nonyl-7-pentyl-2H-chromene-6-carboxamide]
- IC50 [2]: 111 µM
- IC50 [1]: 500 nM

SMILES: CCCCCCCCCCCCNC(=O)c1c(CCCCC)cc2c(c1O)C=CC(C)(CCC=C(C)C)O2 (stereo not drawn) [Compound 4h, N-dodecyl-5-hydroxy-2-methyl-2-(4-methylpent-3-en-1-yl)-7-pentyl-2H-chromene-6-carboxamide]
- IC50 [1]: 2300 nM

SMILES: C=CCCCCCCCCCNC(=O)c1c(CCCCC)cc2c(c1O)C=CC(C)(CCC=C(C)C)O2 (stereo not drawn) [Compound 4i, 5-hydroxy-2-methyl-2-(4-methylpent-3-en-1-yl)-7-pentyl-N-(undec-10-en-1-1)-2H-chromene-6-carboxamide]
- IC50 [2]: 66.8 µM
- IC50 [1]: 300 nM

SMILES: CCCCCc1cc2c(c(O)c1C(=O)NCC(CC)CCCC)C=CC(C)(CCC=C(C)C)O2 (stereo not drawn) [Compound 4j, N-(2-ethylhexyl)-5-hydroxy-2-methyl-2-(4-methylpent-3-en-1-yl)-7-pentyl-2H-chromene-6-carboxamide]
- IC50 [2]: 43.3 µM
- IC50 [1]: 1300 nM

SMILES: CCCCCc1cc2c(c(O)c1C(=O)NC/C=C(\C)CCC=C(C)C)C=CC(C)(CCC=C(C)C)O2 (stereo not drawn) [Compound 4k, (E)-N-(3,7-dimethylocta-2,6-dien-1-yl)-5-hydroxy-2-methyl-2-(4-methylpent-3-en-1-yl)-7-pentyl-2H-chromene-6-carboxamide]
- IC50 [2]: 59.3 µM
- IC50 [1]: 1300 nM

SMILES: CCCCCc1cc2c(c(O)c1C(=O)N1CCS(=O)(=O)CC1)C=CC(C)(CCC=C(C)C)O2 (stereo not drawn) [Compound 4l, (1,1-dioxidothiomorpholino)(5-hydroxy-2-methyl-2-(4-methylpent-3-en-1-yl)-7-pentyl-2H-chromen-6-yl)methanone]
- IC50 [2]: 162 µM

SMILES: C#CCNC(=O)c1c(CCCCC)cc2c(c1O)C=CC(C)(CCC=C(C)C)O2 (stereo not drawn) [Compound 4m, 5-hydroxy-2-methyl-2-(4-methylpent-3-en-1-yl)-7-pentyl-N-(prop-2-yn-1-yl)-2H-chromene-6-carboxamide]
- IC50 [2]: 79.7 µM
- IC50 [1]: 3600 nM

SMILES: CCCCCc1cc2c(c(O)c1C(=O)NCCCc1ccccc1)C=CC(C)(CCC=C(C)C)O2 (stereo not drawn) [Compound 4n, 5-hydroxy-2-methyl-2-(4-methylpent-3-en-1-yl)-7-pentyl-N--(3phenylpropyl)-2H-chromene-6-carboxamide]
- IC50 [2]: 19 µM
- IC50 [1]: 1200 nM

SMILES: CCCCCc1cc2c(c(O)c1C(=O)NC1CCN(S(C)(=O)=O)CC1)C=CC(C)(CCC=C(C)C)O2 (stereo not drawn) [Compound 4o, 5-hydroxy-2-methyl-2-(4-methylpent-3-en-1-yl)-N-(1-(methylsulfonyl)piperidin-4-yl)-7-pentyl-2H-chromene-6-carboxamide]
- IC50 [2]: 8.43 µM

SMILES: CCCCCc1cc2c(c(O)c1C(=O)NCc1cc(Br)cs1)C=CC(C)(CCC=C(C)C)O2 (stereo not drawn) [Compound 4p, N-((4-bromothiophen-2-yl)methyl)-5-hydroxy-2-methyl-2-(4-methylpent-3-en-1-yl)-7-pentyl-2H-chromene-6-carboxamide]
- IC50 [1]: 600 nM

SMILES: CCCCCc1cc2c(c(O)c1C(=O)Nc1ncc(C)s1)C=CC(C)(CCC=C(C)C)O2 (stereo not drawn) [Compound 4r, 5-hydroxy-2-methyl-2-(4-methylpent-3-en-1-yl)-N-(5-methylthiazol-2-yl)-7-pentyl-2H-chromene-6-carboxamide]
- IC50 [2]: 19.1 µM
- IC50 [1]: 1100 nM

SMILES: CCCCCc1cc2c(c(O)c1C(=O)N[C@H]1CCCN(C(=O)OC(C)(C)C)C1)C=CC(C)(CCC=C(C)C)O2 (stereo partly drawn) [Compound 4s, tert-butyl(3S)-3-(5-hydroxy-2-methyl-2-(4-methylpent-3-en-1-yl)-7-pentyl-2H-chromene-6-carboxamido)piperidine-1-carboxylate]
- IC50 [2]: 15.5 µM
- IC50 [1]: 52200 nM

SMILES: CCCCCc1cc2c(c(O)c1C(=O)Nc1ccc(C)cc1)C=CC(C)(CCC=C(C)C)O2 (stereo not drawn) [Compound 4t, 5-hydroxy-2-methyl-2-(4-methylpent-3-en-1-yl)-7-pentyl-N-(p-tolyl)-2H-chromene-6-carboxamide]
- IC50 [1]: 47700 nM

SMILES: CCCCCc1cc2c(c(O)c1C(=O)NC(C)CC)C=CC(C)(CCC=C(C)C)O2 (stereo not drawn) [Compound 4v, N-(sec-butyl)-5-hydroxy-2-methyl-2-(4-methylpent-3-en-1-yl)-7-pentyl-2H-chromene-6-carboxamide]
- IC50 [1]: 6600 nM

SMILES: CCCCCc1cc2c(c(O)c1C(=O)Nc1ccc(-c3ccc(F)cc3)cc1)C=CC(C)(CCC=C(C)C)O2 (stereo not drawn) [Compound 4w, N-(4′-fluoro-[1,1′-biphenyl]-4-yl)-5-hydroxy-2-methyl-2-(4-methylpent-3-en-1-yl)-7-pentyl-2H-chromene-6-carboxamide]
- IC50 [2]: 7.1 µM
- IC50 [1]: 13700 nM

SMILES: CCCCCc1cc2c(c(O)c1C(=O)NCCc1ccc(O)cc1)C=CC(C)(CCC=C(C)C)O2 (stereo not drawn) [Compound 4x, 5-hydroxy-N-(4-hydroxyphenethyl)-2-methyl-2-(4-methylpent-3-en-1-yl)-7-pentyl-2H-chromene-6-carboxamide]
- IC50 [1]: 800 nM
- IC50 [3]: 2600 nM

SMILES: CCCCCc1cc2c(c(O)c1C(=O)NCCS)C=CC(C)(CCC=C(C)C)O2 (stereo not drawn) [Compound 4y, 5-hydroxy-N-(2-mercaptoethyl)-2-methyl-2-(4-methylpent-3-en-1-yl)-7-pentyl-2H-chromene-6-carboxamide]
- IC50 [1]: 6200 nM
